Experimental data taken from the NIST ThermoML archive (doi:10.1016/j.fluid.2012.06.020).
Numbers after ± are expanded uncertainties.

How the values were obtained:
[1] = refractive index (Na D-line) (dimensionless); details: 293.15 K; 101.33 kPa; Liquid; Standard Abbe refractometry
[2] = Liquid; for mass density: 293.15 K, 101.33 kPa, Pycnometric method; for Normal boiling temperature: Fischer Boiling Apparatus

Row | SMILES | refractive index [1] | mass density [2] | Normal boiling temperature [2]
1 | CC(=O)O [acetic acid] | 1.371 ± 0.0004 | 1044.3 ± 0.47 kg/m3 | 117.80 ± 1 °C
2 | CCCCCCCCCCCO [1-undecanol] | 1.4402 ± 0.0005 | 829.2 ± 0.74 kg/m3 | 245.1 ± 1 °C
3 | CCC(=O)O [propanoic acid] | 1.3808 ± 0.0004 | 988.1 ± 0.43 kg/m3 | 141.1 ± 1 °C
4 | O [water] | 1.3324 ± 0.0003 | 999.9 ± 0.26 kg/m3 | 100.1 ± 1 °C
5 | CCCCC(=O)O [pentanoic acid] | 1.4088 ± 0.0004 | 932.5 ± 0.4 kg/m3 | 186.00 ± 1 °C
6 | O=CO [formic acid] | 1.3721 ± 0.0005 | 1218.5 ± 1.5 kg/m3 | 101.1 ± 1 °C
